Where a name gives a salt, the structure may show the parent alone.

The first assay deals with farnesyl transferase (Homo sapiens, UniProt P49354+P49356). The assay can be described thus: Farnesyl transferase inhibition, [3H]-farnesylation of biotinylated K-ras C-terminal peptide (SPA assay). The assay is classed as biochemical. To be noted: In vitro inhibitory activity (K-Ras) IC50, K-Ras substrate; 60 min at 37° C.; mean of two IC50 values. The procedure:
The farnesyl transferase activity was measured by the amount farnesylated of K-ras substrate or of substrate derived from the peptide corresponding to its C-terminal part, the farnesyl group being introduced by farnesyl pyrophosphate (FPP).
It was then brought into contact with PVT-streptavidin (Amersham)® beads and was quantified by proximity scintillation (SPA assay) between the tritium and the PVT beads, by virtue of the streptavidin/biotin interaction.
Experimentally, farnesyl transferase purified according to the appended protocol was diluted, for this assay, to a concentration such that a consumption of substrates of less than 30% was obtained.
The reaction, carried out in Optiplates 96° microtitration plates, was initiated by the enzyme and lasted sixty minutes at 37° C. It was stopped by addition of 150 μl of mixture of a blocking buffer at pH 4 composed of 0.2M H3 PO4, 1.5 mM MgCl2, 0.5% (w/v) BSA, 0.05% (w/v) sodium azide containing 200 μg of PVT-streptavidin beads.
After slow agitation for thirty minutes (in order to remove the chemiluminescence), the plates were read as [^3 H]CPM in a Top Count® (Packard) scintillation counter for microplates, where they were converted into [^3 H]DPM from a range of coloured agent attenuating the scintillation (quenching).
The percentages of inhibition were calculated with respect to an inhibitor-free control after subtraction from all the values of that of a blank which only contained the substrates and the buffer.
The IC50 values were calculated or measured, from the inhibitions obtained at nine different concentrations, with Enzfitter® or Grafit® software. The IC50 values which appear in the results are the mean of measurements and calculations of two IC50 values.
The IC50 is the concentration that inhibits the measured activity by half. Consider `COc1ccccc1CC(=O)N1C[C@H]2[C@@]3(c4ccc(C)cc4)CC[C@H](c4ccccc43)[C@@]2(C(=O)O)C1` (relative stereo) [Example 5, (3aRS,4SR,9SR,9aRS)-4,9-ethano-2-[(2-methoxyphenyl)acetyl]-9-(4-methylphenyl)-2,3,3a,4,9,9a-hexahydro-1H-benzo[f]isoindole-3a-carboxylic Acid], for which the concentration for half-maximal inhibition (IC50) amounted to 50 nM.
In the case of `COc1ccccc1CC(=O)N1C[C@H]2[C@@]3(c4ccc(F)cc4)CC[C@H](c4ccccc43)[C@@]2(C(=O)O)C1` (relative stereo) [Example 8, (3aRS,4SR,9SR,9aRS)-4,9-ethano-9-(4-fluorophenyl)-2-[(2-methoxyphenyl)acetyl]-2,3,3a,4,9,9a-hexahydro-1H-benzo[f]isoindole-3a-carboxylic Acid], the midpoint of inhibition, the IC50, lay at 100 nM.
As to `COc1ccccc1CC(=O)N1C[C@H]2[C@@]3(c4cccc(C)c4)CC[C@H](c4ccccc43)[C@@]2(C(=O)O)C1` (relative stereo) [Example 9, (3aRS,4SR,9SR,9aRS)-4,9-ethano-2-[(2-methoxyphenyl)acetyl]-9-(3-methylphenyl)-2,3,3a,4,9,9a-hexahydro-1H-benzo[f]isoindole-3a-carboxylic Acid], the midpoint of inhibition, the IC50, lay at 55 nM.

Staying with this assay, now noted: K-Ras substrate; 60 min at 37° C.; mean of two IC50 values; read-out: In vitro inhibitory activity (K-Ras) IC50.
On to `C=C(C(=O)N1C[C@@H]2[C@]3(c4ccc(OC)cc4)CC[C@@H](c4ccccc43)[C@]2(C(=O)O)C1)c1ccccc1OC` (racemic) [Example 74, (3aRS,4SR,9SR,9aRS)-4,9-ethano-9-(4-methoxyphenyl)-2-[2-(2-methoxyphenyl)propenoyl]-2,3,3a,4,9,9a-hexahydro-1H-benzo[f]isoindole-3a-carboxylic Acid], for which the IC50 amounted to 48 nM.
Take `C=C(C(=O)N1C[C@@H]2[C@]3(c4ccc(OC)cc4)CC[C@@H](c4ccccc43)[C@]2(C(=O)NO)C1)c1ccccc1OC` (racemic) [Example 78, (3aRS,4SR,9SR,9aRS)-4,9-ethano-9-(4-methoxyphenyl)-2-[2-(2-methoxyphenyl)propenoyl]-2,3,3a,4,9,9a-hexahydro-1H-benzo[f]isoindole-3a-hydroxamic acid]: the 50% inhibitory concentration (IC50) was determined as 48 nM.
Same read-out and setting: in the case of `C=C(C(=O)N1C[C@@H]2[C@]3(c4ccc(OC(F)(F)F)cc4)CC[C@@H](c4ccccc43)[C@]2(C(=O)O)C1)c1ccccc1OC` (racemic) [Example 82, (3aRS,4SR,9SR,9aRS)-4,9-ethano-2-[2-(2-methoxyphenyl)propenoyl]-9-(4-trifluoromethoxyphenyl)-2,3,3a,4,9,9a-hexahydro-1H-benzo[f]isoindole-3a-carboxylic Acid] it was 97 nM; in that of `C=C(C(=O)N1C[C@@H]2[C@]3(c4cccc(Br)c4)CC[C@@H](c4ccccc43)[C@]2(C(=O)OC)C1)c1ccccc1OC` (racemic) [Example 83, methyl (3aRS,4SR,9SR,9aRS)-9-(3-bromophenyl)-4,9-ethano-2-[2-(2-methoxyphenyl)propenoyl]-2,3,3a,4,9,9a-hexahydro-1H-benzo[f]isoindole-3a-carboxylate], 319 nM; in that of `C=C(C(=O)N1C[C@@H]2[C@]3(c4cccc(Br)c4)CC[C@@H](c4ccccc43)[C@]2(C(=O)O)C1)c1ccccc1OC` (racemic) [Example 84, (3aRS,4SR,9SR,9aRS)-9-(3-bromophenyl)-4,9-ethano-2-[2-(2-methoxyphenyl)propenoyl]-2,3,3a,4,9,9a-hexahydro-1H-benzo[f]isoindole-3a-carboxylic Acid], 8 nM.
In the case of `C=C(C(=O)N1C[C@@H]2[C@]3(c4cccc(F)c4)CC[C@@H](c4ccccc43)[C@]2(C(=O)OC)C1)c1ccccc1OC` (racemic) [Example 85, methyl (3aRS,4SR,9SR,9aRS)-4,9-ethano-9-(3-fluorophenyl)-2-[2-(2-methoxyphenyl)propenoyl]-2,3,3a,4,9,9a-hexahydro-1H-benzo[f]isoindole-3a-carboxylate], the half-inhibitory concentration (IC50) came out at 508 nM.
`C=C(C(=O)N1C[C@@H]2[C@]3(c4cccc(F)c4)CC[C@@H](c4ccccc43)[C@]2(C(=O)O)C1)c1ccccc1OC` (racemic) [Example 86, (3aRS,4SR,9SR,9aRS)-4,9-ethano-9-(3-fluorophenyl)-2-[2-(2-methoxyphenyl)propenoyl]-2,3,3a,4,9,9a-hexahydro-1H-benzo[f]isoindole-3a-carboxylic Acid]: the IC50 is 5 nM.
Take `C=C(C(=O)N1C[C@@H]2[C@]3(c4cccc(Cl)c4)CC[C@@H](c4ccccc43)[C@]2(C(=O)OC)C1)c1ccccc1OC` (racemic) [Example 88, methyl (3aRS,4SR,9SR,9aRS)-9-(3-chlorophenyl)-4,9-ethano-2-[2-(2-methoxyphenyl)propenoyl]-2,3,3a,4,9,9a-hexahydro-1H-benzo[f]isoindole-3a-carboxylate]: the IC50 amounted to 404 nM.
As to `C=C(C(=O)N1C[C@@H]2[C@]3(c4cccc(Cl)c4)CC[C@@H](c4ccccc43)[C@]2(C(=O)O)C1)c1ccccc1OC` (racemic) [Example 89, (3aRS,4SR,9SR,9aRS)-9-(3-chlorophenyl)-4,9-ethano-2-[2-(2-methoxyphenyl)propenoyl]-2,3,3a,4,9,9a-hexahydro-1H-benzo[f]isoindole-3a-carboxylic Acid], the IC50 is 5 nM.
For `C=C(C(=O)N1C[C@@H]2[C@]3(c4cccc(N)c4)CC[C@@H](c4ccccc43)[C@]2(C(=O)OC)C1)c1ccccc1OC` (racemic) [Example 93, methyl (3aRS,4SR,9SR,9aRS)-9-(3-aminophenyl)-4,9-ethano-2-[2-(2-methoxyphenyl)propenoyl]-2,3,3a,4,9,9a-hexahydro-1H-benzo[f]isoindole-3a-carboxylate hydrochloride], the half-maximal inhibitory concentration (IC50) was determined as 786 nM.
Take `C=C(C(=O)N1C[C@@H]2[C@]3(c4ccc(C#N)cc4)CC[C@@H](c4ccccc43)[C@]2(C(=O)O)C1)c1ccccc1OC` (racemic) [Example 95, (3aRS,4SR,9SR,9aRS)-9-(4-cyanophenyl)-4,9-ethano-2-[2-(2-methoxyphenyl)propenoyl]-2,3,3a,4,9,9a-hexahydro-1H-benzo[f]isoindole-3a-carboxylic Acid]: the IC50 came out at 177 nM.
As for `C=C(C(=O)N1C[C@@H]2[C@]3(c4cccc(C#N)c4)CC[C@@H](c4ccccc43)[C@]2(C(=O)OC)C1)c1ccccc1OC` (racemic) [Example 96, methyl (3aRS,4SR,9SR,9aRS)-9-(3-cyanophenyl)-4,9-ethano-2-[2-(2-methoxyphenyl)propenoyl]-2,3,3a,4,9,9a-hexahydro-1H-benzo[f]isoindole-3a-carboxylate], the IC50 was 955 nM.
Still for that read-out and setting: in the case of `C=C(C(=O)N1C[C@@H]2[C@]3(c4ccc(OC)c(O)c4)CC[C@@H](c4ccccc43)[C@]2(C(=O)O)C1)c1ccccc1OC` (racemic) [Example 97, (3aRS,4SR,9SR,9aRS)-4,9-ethano-9-(3-hydroxy-4-methoxyphenyl)-2-[2-(2-methoxyphenyl)propenoyl]-2,3,3a,4,9,9a-hexahydro-1H-benzo[f]isoindole-3a-carboxylic Acid] it was 40 nM.
Take `C=C(C(=O)N1C[C@@H]2[C@]3(c4ccc(C)cc4)CC[C@@H](c4c(OC)cccc43)[C@]2(C(=O)OC)C1)c1ccccc1OC` (racemic) [Example 98, methyl (3aRS,4SR,9SR,9aRS)-4,9-ethano-5-methoxy-2-[2-(2-methoxyphenyl)propenoyl]-9-(4-methylphenyl)-2,3,3a,4,9,9a-hexahydro-1H-benzo[f]isoindole-3a-carboxylate]: the concentration for half-maximal inhibition (IC50) worked out at 663 nM.
The same measure, in the same setting: for `C=C(C(=O)N1C[C@@H]2[C@]3(c4ccc(C)cc4)CC[C@@H](c4c(OC)cccc43)[C@]2(C(=O)O)C1)c1ccccc1OC` (racemic) [Example 99, (3aRS,4SR,9SR,9aRS)-4,9-ethano-5-methoxy-2-[2-(2-methoxyphenyl)propenoyl]-9-(4-methylphenyl)-2,3,3a,4,9,9a-hexahydro-1H-benzo[f]isoindole-3a-carboxylic Acid] the value was 18 nM; for `C=C(C(=O)N1C[C@@H]2[C@]3(c4ccc(OC)cc4)CC[C@@](C)(c4ccccc43)[C@@]2(C(=O)O)C1)c1ccccc1OC` (racemic) [Example 101, (3aRS,4SR,9SR,9aRS)-4,9-ethano-2-[2-(2-methoxyphenyl)propenoyl]-9-(4-methoxyphenyl)-4-methyl-2,3,3a,4,9,9a-hexahydro-1H-benzo[f]isoindole-3a-carboxylic Acid], below 19 nM.
The same measure, in the same setting: for `COc1ccc([C@]23CC[C@H](c4ccccc42)[C@@]2(C(=O)O)CN(C(=O)Cc4ccccc4OC)C[C@@H]32)cc1` (relative stereo) [Example 6, (3aRS,4SR,9SR,9aRS)-4,9-ethano-9-(4-methoxyphenyl)-2-[(2-methoxyphenyl)acetyl]-2,3,3a,4,9,9a-hexahydro-1H-benzo[f]isoindole-3a-carboxylic Acid] the value was 57.5 nM; for `COc1ccccc1CC(=O)N1C[C@H]2[C@@]3(c4ccc(SC)cc4)CC[C@H](c4ccccc43)[C@@]2(C(=O)O)C1` (relative stereo) [Example 7, (3aRS,4SR,9SR,9aRS)-4,9-ethano-2-[(2-methoxyphenyl)acetyl]-9-(4-methylsulphanylphenyl)-2,3,3a,4,9,9a-hexahydro-1H-benzo[f]isoindole-3a-carboxylic Acid], 50 nM.

These data come from US6218406A, “Farnesyl transferase inhibitors, their preparation, the pharmaceutical compositions which contain them and their use in the preparation of medicaments” (Aventis Pharma S.A., priority 1996, dated 2001).
